Columns and labels:
[1] = biological target: T1, Alpha-1A adrenergic receptor (Homo sapiens, UniProt P35348); experiment: Displacement of [3H]-prazosin from human ADRA1A receptor
T1 sequence (P35348 whole entry): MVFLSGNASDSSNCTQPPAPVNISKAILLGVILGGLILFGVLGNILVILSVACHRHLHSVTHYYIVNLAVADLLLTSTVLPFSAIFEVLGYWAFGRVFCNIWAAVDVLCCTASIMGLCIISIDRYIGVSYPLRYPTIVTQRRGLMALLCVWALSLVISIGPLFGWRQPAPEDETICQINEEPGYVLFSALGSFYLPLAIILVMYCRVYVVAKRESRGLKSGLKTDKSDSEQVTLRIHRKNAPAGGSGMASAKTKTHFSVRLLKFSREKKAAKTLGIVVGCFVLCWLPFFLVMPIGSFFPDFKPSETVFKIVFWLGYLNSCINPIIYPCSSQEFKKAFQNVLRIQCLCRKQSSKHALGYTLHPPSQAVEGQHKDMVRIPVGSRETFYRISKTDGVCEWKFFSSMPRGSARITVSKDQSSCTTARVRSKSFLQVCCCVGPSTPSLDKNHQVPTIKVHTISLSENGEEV

Homo sapiens [2] = organism: Homo sapiens; experiment: Selectivity ratio of Ki for human dopamine D2S receptor to Ki for human dopamine D3 receptor
Homo sapiens [3] = organism: Homo sapiens; experiment: Selectivity ratio of Ki for human ADRA1A receptor to Ki for human dopamine D3 receptor
D(3) dopamine receptor = D(3) dopamine receptor (Homo sapiens, UniProt P35462); experiment: Displacement of [3H]-spiperone from human dopamine D3 receptor expressed in CHO cell membranes
Chain of D(3) dopamine receptor (P35462 whole entry): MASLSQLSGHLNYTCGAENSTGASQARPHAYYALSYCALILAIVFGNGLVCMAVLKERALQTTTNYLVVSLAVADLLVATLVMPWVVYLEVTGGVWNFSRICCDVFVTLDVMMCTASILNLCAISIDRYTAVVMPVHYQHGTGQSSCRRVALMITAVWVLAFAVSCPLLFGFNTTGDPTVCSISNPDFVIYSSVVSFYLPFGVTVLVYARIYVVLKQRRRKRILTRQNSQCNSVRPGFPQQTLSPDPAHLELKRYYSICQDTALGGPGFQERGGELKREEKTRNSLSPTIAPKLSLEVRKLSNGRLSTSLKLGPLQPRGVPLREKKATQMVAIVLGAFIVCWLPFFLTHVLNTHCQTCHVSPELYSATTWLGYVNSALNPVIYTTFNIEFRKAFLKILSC

D(2) dopamine receptor = D(2) dopamine receptor (Homo sapiens, UniProt P14416); experiment: Displacement of [3H]-spiperone from human dopamine D2S receptor expressed in HEK293 cell membranes
Chain of D(2) dopamine receptor (P14416 whole entry): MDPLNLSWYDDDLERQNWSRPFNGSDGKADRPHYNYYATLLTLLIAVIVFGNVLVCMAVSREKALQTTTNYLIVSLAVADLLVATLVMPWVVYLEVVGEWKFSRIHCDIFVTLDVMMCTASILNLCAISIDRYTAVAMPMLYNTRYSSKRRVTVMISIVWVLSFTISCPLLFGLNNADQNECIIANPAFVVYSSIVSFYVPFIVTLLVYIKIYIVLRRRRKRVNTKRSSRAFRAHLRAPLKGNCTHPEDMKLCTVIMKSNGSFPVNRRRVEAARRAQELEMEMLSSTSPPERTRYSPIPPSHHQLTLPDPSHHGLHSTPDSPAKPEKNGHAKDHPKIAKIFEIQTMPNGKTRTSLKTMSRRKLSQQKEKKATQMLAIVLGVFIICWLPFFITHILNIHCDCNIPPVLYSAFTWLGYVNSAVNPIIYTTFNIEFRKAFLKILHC

hERG (KCNH2) = hERG (KCNH2) (Homo sapiens, UniProt Q12809); experiment: Inhibition of dofetilide binding to human ERG at 1 uM; conditions: probe dofetilide
Chain of hERG (KCNH2) (Q12809 whole entry): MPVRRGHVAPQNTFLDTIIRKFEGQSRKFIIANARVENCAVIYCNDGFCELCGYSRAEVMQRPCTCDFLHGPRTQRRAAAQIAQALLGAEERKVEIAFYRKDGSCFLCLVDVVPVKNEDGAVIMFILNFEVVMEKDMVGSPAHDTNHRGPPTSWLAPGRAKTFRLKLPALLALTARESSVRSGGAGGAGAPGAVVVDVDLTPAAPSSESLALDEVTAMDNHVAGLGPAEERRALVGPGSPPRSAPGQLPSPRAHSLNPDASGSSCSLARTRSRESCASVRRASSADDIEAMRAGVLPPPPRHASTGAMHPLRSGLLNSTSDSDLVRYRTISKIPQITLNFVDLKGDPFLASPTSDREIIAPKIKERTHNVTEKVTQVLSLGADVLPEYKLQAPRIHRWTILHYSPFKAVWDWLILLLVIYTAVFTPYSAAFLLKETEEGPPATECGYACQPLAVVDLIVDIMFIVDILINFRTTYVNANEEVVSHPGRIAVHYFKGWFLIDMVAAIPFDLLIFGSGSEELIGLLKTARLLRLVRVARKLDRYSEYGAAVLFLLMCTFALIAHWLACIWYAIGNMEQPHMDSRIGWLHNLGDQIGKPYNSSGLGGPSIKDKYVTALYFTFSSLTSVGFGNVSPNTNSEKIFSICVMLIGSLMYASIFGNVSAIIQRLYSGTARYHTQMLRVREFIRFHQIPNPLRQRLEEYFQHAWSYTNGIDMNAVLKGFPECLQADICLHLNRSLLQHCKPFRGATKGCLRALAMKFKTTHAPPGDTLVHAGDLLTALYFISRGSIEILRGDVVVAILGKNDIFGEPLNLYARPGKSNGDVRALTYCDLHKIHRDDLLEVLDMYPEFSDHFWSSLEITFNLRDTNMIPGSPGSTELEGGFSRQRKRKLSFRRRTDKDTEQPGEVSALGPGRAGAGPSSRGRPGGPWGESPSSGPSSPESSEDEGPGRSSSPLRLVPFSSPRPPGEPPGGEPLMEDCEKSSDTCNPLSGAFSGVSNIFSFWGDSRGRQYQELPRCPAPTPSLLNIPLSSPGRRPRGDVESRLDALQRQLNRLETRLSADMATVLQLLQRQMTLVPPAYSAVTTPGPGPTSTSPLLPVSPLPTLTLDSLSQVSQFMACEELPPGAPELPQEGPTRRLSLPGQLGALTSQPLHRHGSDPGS

Ki [1] [nM]	Ratio Ki (Homo sapiens [2])	Ratio Ki (Homo sapiens [3])	Ki (D(3) dopamine receptor) [nM]	Ki (D(2) dopamine receptor; read-out: Ki) [nM]	Ki (D(2) dopamine receptor; hek293)	SMILES	inhibition at 1 µM (hERG (KCNH2)) [%]
283	1400	260	1.1	1550	–	O=C(NCCCCN1CCN(c2cccc(C(F)(F)F)c2)CC1)c1ccc2ccccc2c1	51
46.7	400	3.7	12.7	5030	–	O=C(NCCCCN1CCN(c2ccccc2O)CC1)c1ccc2ccccc2c1	–
81	270	45	1.8	482	–	COc1ccccc1N1CCN(CCCCNC(=O)N2CCOCC2)CC1	–
65.5	161	33	2	322	–	COc1ccccc1N1CCN(CCCCNC(=O)CC2CCCCC2)CC1	–
10.3	0.4	0.1	87	34	–	COc1ccccc1N1CCN(CCCCCOc2ccc3ccccc3c2)CC1	–
1520	1900	7600	0.2	373	–	O=C(NCCCCN1CCN(c2cccc(O)c2)CC1)c1ccc2ccccc2c1	30
211	100	420	0.5	52	–	O=C1Cc2c(cccc2N2CCN(CCCCNC(=O)c3ccc4ccccc4c3)CC2)N1	–
1030	234	264	3.9	911	–	CCOC(=O)Nc1cccc(N2CCN(CCCCNC(=O)c3ccc4ccccc4c3)CC2)c1	–
160	34	100	1.6	55	–	CS(=O)(=O)Nc1cccc(N2CCN(CCCCNC(=O)c3ccc4ccccc4c3)CC2)c1	–
19	73	15	1.3	95	–	O=C(NCCCCN1CCN(c2cccc3[nH]ccc23)CC1)c1ccc2ccccc2c1	–
158	37	45	3.5	131	–	O=C(NCCCCN1CCN(c2cccc3[nH]c(=O)[nH]c23)CC1)c1ccc2ccccc2c1	–
104	–	–	1.08	–	–	O=C(NCCCCN1CCN(c2cccc(Cl)c2Cl)CC1)c1ccc2ccccc2c1	–
166	1170	16	10.4	12100	–	O=C(NCCCCN1CCN(c2ccc(Cl)cc2)CC1)c1ccc2ccccc2c1	–
29.9	340	43	0.7	238	–	O=C(NCCCCN1CCN(c2ccccc2Cl)CC1)c1ccc2ccccc2c1	–
5	10	4	1.3	13	–	COc1ccccc1N1CCN(CCCCNC(=O)Nc2cccc(Cl)c2)CC1	–
418	–	3	123	–	Not Active	COc1ccccc1N1CCN(CCCCNC(=O)CC(C)C)CC1	–
116	130	10	12	1550	–	COc1ccccc1N1CCN(CCCCNC(=O)N(C)c2ccccc2)CC1	–
29.9	550	41	0.73	404	–	Cc1ccccc1N1CCN(CCCCNC(=O)c2ccc3ccccc3c2)CC1	–
50.2	700	11	4.7	3320	–	O=C(NCCCCN1CCN(c2cccc(Cl)c2)CC1)c1ccc2ccccc2c1	–
38.5	250	31	1.23	310	–	O=C(NCCCCN1CCN(c2ccccc2F)CC1)c1ccc2ccccc2c1	–
230	230	170	1.33	302	–	Cc1cccc(N2CCN(CCCCNC(=O)c3ccc4ccccc4c3)CC2)c1C	–
963	190	1070	0.9	168	–	COc1ccccc1N1CCN(CCCCNC(=O)C2CCCCC2)CC1	82

Reference: ChEMBL document CHEMBL3758127, “Improving selectivity of dopamine D3 receptor ligands” (Bioorg Med Chem Lett, 2016)
